Literature values in US10130658B2, “Method of ex vivo enhancement of immune cell activity for cancer immunotherapy with a small molecule ablative compound” (Provectus Pharmatech, Inc., priority 2015, dated 2018).

Experiments:
Hela cells = details: treated for 1 hour following photodynamic irradiation

Row | Compound | time to autolyse tumor cells (tumor cells; accumulates in lysosomes of tumor cells) [min] | uptake into normal cells (tumor cells; normal cells) | HMGB1 release (Hela cells)
1 | O=C1OC2(c3cc(I)c(O)c(I)c3Oc3c2cc(I)c(O)c3I)c2c(Cl)c(Cl)c(Cl)c(Cl)c21 [RB, 4,5,6,7-tetrachloro-2′,4′,5′,7′-tetraiodofluorescein] | 30 to 60 | excluded | 
2 | CC(=O)Oc1c(I)cc2c(c1I)Oc1c(cc(I)c(OC(C)=O)c1I)C21OC(=O)c2c(Cl)c(Cl)c(Cl)c(Cl)c21 [rose bengal acetate] |  |  | passively released
